One data set is described as follows: Stabilities. The class given is physicochemical. To be noted: for stability: isomerization on storage: methanol or methanol–chloroform mixture (v/v 1:1) as solvent.
For data set [1], the target named is T1, recombinant human estrogen receptor-α (ER-α) (Homo sapiens, UniProt P03372).
T1 sequence (P03372 1-595): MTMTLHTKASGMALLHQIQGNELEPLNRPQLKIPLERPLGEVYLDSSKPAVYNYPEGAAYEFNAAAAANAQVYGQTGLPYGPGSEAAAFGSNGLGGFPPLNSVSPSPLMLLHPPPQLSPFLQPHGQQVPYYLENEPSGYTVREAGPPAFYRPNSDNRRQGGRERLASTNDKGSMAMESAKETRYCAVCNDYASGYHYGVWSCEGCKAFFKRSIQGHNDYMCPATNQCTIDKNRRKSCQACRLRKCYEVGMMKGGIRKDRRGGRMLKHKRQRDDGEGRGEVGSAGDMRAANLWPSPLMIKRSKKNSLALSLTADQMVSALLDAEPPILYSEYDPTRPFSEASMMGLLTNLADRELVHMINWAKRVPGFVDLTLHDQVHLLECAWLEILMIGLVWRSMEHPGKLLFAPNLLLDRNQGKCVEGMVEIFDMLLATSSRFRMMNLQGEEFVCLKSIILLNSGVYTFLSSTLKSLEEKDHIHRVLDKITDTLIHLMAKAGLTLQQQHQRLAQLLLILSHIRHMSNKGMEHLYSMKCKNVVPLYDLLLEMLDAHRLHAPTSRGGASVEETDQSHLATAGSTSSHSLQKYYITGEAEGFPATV
The class given is binding. To be noted: at 100 μM compound.

Data set [2] concerns the target T2, recombinant human aromatase (CYP19) (Homo sapiens, UniProt P11511).
T2 sequence (P11511 1-503): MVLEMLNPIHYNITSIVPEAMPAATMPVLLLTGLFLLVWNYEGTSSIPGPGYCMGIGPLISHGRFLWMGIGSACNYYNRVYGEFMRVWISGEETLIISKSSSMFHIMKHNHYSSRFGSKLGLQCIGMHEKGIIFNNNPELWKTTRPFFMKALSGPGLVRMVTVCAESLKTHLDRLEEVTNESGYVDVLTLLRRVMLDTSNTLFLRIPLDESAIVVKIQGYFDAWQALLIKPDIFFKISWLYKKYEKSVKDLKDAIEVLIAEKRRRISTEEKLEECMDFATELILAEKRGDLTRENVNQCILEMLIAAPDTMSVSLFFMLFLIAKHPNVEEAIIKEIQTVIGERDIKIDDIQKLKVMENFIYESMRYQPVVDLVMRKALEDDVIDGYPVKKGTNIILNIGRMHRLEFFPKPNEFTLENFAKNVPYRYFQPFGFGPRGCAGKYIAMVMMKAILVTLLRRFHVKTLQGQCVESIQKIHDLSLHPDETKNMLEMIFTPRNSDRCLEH
Put plainly: Inhibition of recombinant human aromatase.

Data set [3] addresses recombinant human estrogen receptor-β (ER-β) (Homo sapiens, UniProt Q92731). It counts as binding. To be noted: at 100 μM compound.

Chain of recombinant human estrogen receptor-β (ER-β) (Q92731 whole entry): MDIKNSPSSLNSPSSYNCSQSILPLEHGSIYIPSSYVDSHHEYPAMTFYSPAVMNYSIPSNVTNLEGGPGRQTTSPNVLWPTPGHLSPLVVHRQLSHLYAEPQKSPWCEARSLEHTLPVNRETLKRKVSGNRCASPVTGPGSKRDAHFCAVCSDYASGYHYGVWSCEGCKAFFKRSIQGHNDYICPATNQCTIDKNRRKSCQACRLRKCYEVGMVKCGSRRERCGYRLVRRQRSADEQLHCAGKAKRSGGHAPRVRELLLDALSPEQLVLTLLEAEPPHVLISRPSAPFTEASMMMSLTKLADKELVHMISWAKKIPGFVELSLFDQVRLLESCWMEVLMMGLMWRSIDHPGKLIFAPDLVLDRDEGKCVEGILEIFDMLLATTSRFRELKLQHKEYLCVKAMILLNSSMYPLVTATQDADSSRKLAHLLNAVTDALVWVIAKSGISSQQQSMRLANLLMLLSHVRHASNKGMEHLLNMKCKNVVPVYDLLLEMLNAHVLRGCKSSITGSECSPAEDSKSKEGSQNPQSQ

For the compound `CC/C(=C(/c1ccc(O)cc1)c1ccc(OCCN)cc1)c1ccccc1` [E-4, (E)-4-(1-(4-(2-Aminoethoxy)phenyl)-2-phenylbut-1-enyl)phenol], the “stability: isomerization on storage” value in “Stabilities” is on record as “stored for at least a few weeks without substantial isomerization”. `CC/C(=C(\c1ccc(O)cc1)c1ccc(OCCN)cc1)c1ccccc1` [Z-4, (Z)-4-(1-(4-(2-Aminoethoxy)phenyl)-2-phenylbut-1-enyl)phenol]: the “stability: isomerization to mixed (E,Z)-norendoxifen” value in the data set “Stabilities” (chloroform (or dichloromethane) as the single solvent) is “fast isomerization”. In addition, the “stability: isomerization on storage” value in the data set “Stabilities” is given as “stored for at least a few weeks without substantial isomerization”. For `CCC(=C(c1ccc(O)cc1)c1ccc(O)cc1)c1ccccc1` [compound 2, 4,4′-(2-Phenylbut-1-ene-1,1-diyl)diphenol], the ER-α percent competition in data set [1] is 80% competition.

As for `CC/C(=C(\c1ccc(O)cc1)c1ccc(OCC(N)=O)cc1)c1ccccc1` [compound 3, (E,Z)-2-(4-(1-(4-Hydroxyphenyl)-2-phenylbut-1-enyl)phenoxy)-acetamide], the ER-α percent competition in data set [1] was found to be 57% competition. The “fold less potent against aromatase than mixed (E,Z)-norendoxifen” value in data set [2] stood at 90 fold. The ER-β percent competition in data set [3] stood at 71% competition.

With `CC/C(=C(/c1ccc(O)cc1)c1ccc(OC(=O)C(C)(C)C)cc1)c1ccccc1` [compound 6, (E)-4-(1-(4-Hydroxyphenyl)-2-phenylbut-1-enyl)phenyl Pivalate], in data set [1], the ER-α percent competition is 68% competition. In addition, the ER-β percent competition in data set [3] was 68% competition.

Consider `CC/C(=C(/c1ccc(OCC(N)=O)cc1)c1ccc(OC(=O)C(C)(C)C)cc1)c1ccccc1` [compound 7, (E)-4-(1-(4-(2-Amino-2-oxoethoxy)phenyl)-2-phenylbut-1-enyl)-phenyl Pivalate], for which, in data set [1], the ER-α percent competition came to 56% competition. For the same compound, in data set [3], the ER-β percent competition is listed as 45% competition.
